From paper PMC4895354 (2016)

How the values were obtained:
[1] = test system: r(AUUCU)11, 5'-32P labelled (RNA, repeat) AUUCUAUUCUAUUCUAUUCUAUUCUAUUCUAUUCUAUUCUAUUCUAUUCUAUUCU; experiment: filter binding (dot blot); conditions: PBS, 1 mM MgCl2; pH 7.4; 50 μg/ml BSA; RNA 100 nM, compound 1 μM
[2] = test system: r(AUUCU)11 (RNA, repeat) AUUCUAUUCUAUUCUAUUCUAUUCUAUUCUAUUCUAUUCUAUUCUAUUCUAUUCU; experiment: fluorescence titration, sigmoidal fit; conditions: 185 mM NaCl, 8 mM Na2HPO4, pH 7.0, 0.1 mM EDTA
[3] = test system: r(AUUCU)11 for TR-FRET (RNA, repeat) AUUCUAUUCUAUUCUAUUCUAUUCUAUUCUAUUCUAUUCUAUUCUAUUCUAUUCU; experiment: TR-FRET, inhibition of RNA-protein complex; conditions: 110 mM KCl, 110 mM NaCl, 2 mM MgCl2, 2 mM CaCl2, 20 mM HEPES pH 7.5, DGCR8Δ 40 nM displaced, RNA 60 nM
[4] = test system: r(AUUCU)11 (RNA, repeat) AUUCUAUUCUAUUCUAUUCUAUUCUAUUCUAUUCUAUUCUAUUCUAUUCUAUUCU; experiment: fluorescence titration, lattice (Scatchard-type) fit; conditions: 185 mM NaCl, 8 mM Na2HPO4, pH 7.0, 0.1 mM EDTA, microscopic Kd, per site
[5] = test system: r(AUUCU)11, 5'-32P labelled (RNA, repeat) AUUCUAUUCUAUUCUAUUCUAUUCUAUUCUAUUCUAUUCUAUUCUAUUCUAUUCU; experiment: RNase V1 protection; conditions: 1× RNA Structure Buffer; compound 0-20 μM; protects each AU pair
[6] = test system: AAUU (RNA, hairpin) AAUUAAUUAAUUGAAAAAUUAAUUAAUU; experiment: fluorescence titration, sigmoidal fit; conditions: 185 mM NaCl, 8 mM Na2HPO4, pH 7.0, 0.1 mM EDTA, RNA titrated
[7] = test system: AUAU (RNA, hairpin) AUAUAUAUAUAUGAAAAUAUAUAUAUAU; experiment: fluorescence titration, sigmoidal fit; conditions: 185 mM NaCl, 8 mM Na2HPO4, pH 7.0, 0.1 mM EDTA, RNA titrated
[8] = test system: GGCC (RNA, hairpin) GGCCGGCCGAAAGGCCGGCC; experiment: fluorescence titration, sigmoidal fit; conditions: 185 mM NaCl, 8 mM Na2HPO4, pH 7.0, 0.1 mM EDTA, RNA titrated
[9] = test system: GCGC (RNA, hairpin) GCGCGCGCGAAAGCGCGCGC; experiment: fluorescence titration, sigmoidal fit; conditions: 185 mM NaCl, 8 mM Na2HPO4, pH 7.0, 0.1 mM EDTA, RNA titrated
[10] = test system: AAUU (RNA, hairpin) AAUUAAUUAAUUGAAAAAUUAAUUAAUU; experiment: fluorescence titration, lattice (Scatchard-type) fit; conditions: 185 mM NaCl; 8 mM Na2HPO4, pH 7.0, 0.1 mM EDTA; microscopic Kd; per site
[11] = test system: AUAU (RNA, hairpin) AUAUAUAUAUAUGAAAAUAUAUAUAUAU; experiment: as above; conditions: 185 mM NaCl; 8 mM Na2HPO4, pH 7.0, 0.1 mM EDTA; microscopic Kd; per site
DGCR8Δ = target: T1, DGCR8Δ (UniProt Q8WYQ5); experiment: EMSA; conditions: 2 mM Mg2+, 2 mM Ca2+; EMSA: 20 mM HEPES pH 7.5, 110 mM KCl, 110 mM NaCl, 0.1% BSA, 2 mM MgCl2, 2 mM CaCl2, 0.05% Tween-20, 5 mM DTT, 15 min, room temperature; native 5% PAGE
T1 sequence: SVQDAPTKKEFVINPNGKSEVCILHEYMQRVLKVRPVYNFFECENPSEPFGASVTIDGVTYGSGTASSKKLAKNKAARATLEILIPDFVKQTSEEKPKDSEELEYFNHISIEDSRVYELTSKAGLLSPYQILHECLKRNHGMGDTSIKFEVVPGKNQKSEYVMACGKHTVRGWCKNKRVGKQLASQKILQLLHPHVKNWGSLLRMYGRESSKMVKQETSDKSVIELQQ

[12] = test system: r(CUG)12 (RNA, repeat) CUGCUGCUGCUGCUGCUGCUGCUGCUGCUGCUGCUG; experiment: fluorescence titration, sigmoidal fit; conditions: 185 mM NaCl; 8 mM Na2HPO4, pH 7.0, 0.1 mM EDTA; range over four repeats 36–87 nM
[13] = test system: r(CGG)12 (RNA, repeat) CGGCGGCGGCGGCGGCGGCGGCGGCGGCGGCGGCGG; experiment: fluorescence titration, sigmoidal fit; conditions: 185 mM NaCl; 8 mM Na2HPO4, pH 7.0, 0.1 mM EDTA; range over four repeats 36–87 nM
[14] = test system: r(CCUG)12 (RNA, repeat) CCUGCCUGCCUGCCUGCCUGCCUGCCUGCCUGCCUGCCUGCCUGCCUG; experiment: fluorescence titration, sigmoidal fit; conditions: 185 mM NaCl; 8 mM Na2HPO4, pH 7.0, 0.1 mM EDTA; range over four repeats 36–87 nM

`CCCN(CC(=O)N(CCC)CC(=O)N(CC(N)=O)Cc1cn(CCCNC(=N)c2ccc(-c3ccc(-c4ccc(C(=N)N)cc4)o3)cc2)nn1)C(=O)CNCc1cn(CCCNC(=N)c2ccc(-c3ccc(-c4ccc(C(=N)N)cc4)o3)cc2)nn1` was tested, and the binding [1] was “yes”, the EC50 ([2]; without PEG 8000) was 146 ± 8 nM and the binding ([3]; ~70% inhibition at 1.5 μM) was “yes”. The Kd ([4]; Hill 1.4±0.4) was 185 ± 1.0 nM.
For `N=C(N)c1ccc(-c2ccc(-c3ccc(C(=N)N)cc3)o2)cc1`, the binding [5] was “yes”, the EC50 ([6]; 1 μM compound, Hill 1.5±0.24) was 170 ± 40 nM and the EC50 ([7]; 1 μM compound, Hill 1.6±0.28) was 190 ± 20 nM. The EC50 ([8]; 1 μM compound, Hill 0.85±0.08) was 8,550±250 nM, the EC50 ([9]; 1 μM compound, Hill 0.77±0.16) was 6,950±250 nM and the Kd [10] was 320 nM. It also gave a Kd [11] of 210 nM and a Kd ([4]; Hill 1.7±0.2) of 300 ± 47 nM.
Work on “AUUCUAUUCUAUUCUAUUCUAUUCUAUUCUAUUCUAUUCUAUUCUAUUCUAUUCU [r(AUUCU)11]” yielded a Kd (DGCR8Δ) of 1600 nM.
For `[N-]=[N+]=NCCCNC(=N)c1ccc(-c2ccc(-c3ccc(C(=N)N)cc3)o2)cc1`, the EC50 ([6]; 1 μM compound, Hill 1.0±0.17) was 45 ± 6 nM, the EC50 ([7]; 1 μM compound, Hill 1.0±0.13) was 31 ± 4 nM and the EC50 ([8]; 1 μM compound) was > 6,000 nM. The EC50 ([9]; 1 μM compound) was > 2,000 nM, the binding ([3]; ~25% inhibition at 1.5 μM) was “yes” and the Kd ([4]; Hill 1.3±0.1) was 375 ± 34 nM.
With `N=C(N)c1ccc(-c2ccc(-c3ccccc3)o2)cc1` the EC50 ([6]; 3 μM compound, Hill 3.1±0.79) was 170 ± 10 nM, the EC50 ([7]; 3 μM compound, Hill 1.5±0.32) was 45 ± 1 nM and the EC50 ([8]; 3 μM compound, Hill 1.4±0.34) was 390 ± 20 nM. For the same compound, the EC50 ([9]; 3 μM compound, Hill 0.92±0.34) was 240 ± 10 nM, the binding ([2]; range over four repeats 36–87 nM) was “yes” and the binding [12] was “yes”. For the same compound, the binding [13] was “yes” and the binding [14] was “yes”.
